This passage reports IC50 results from ChEMBL document CHEMBL4699577, “Highly Oxygenated Caryophyllene-Type Sesquiterpenes from a Plant-Associated Fungus, Pestalotiopsis hainanensis, and Their Biosynthetic Gene Cluster” (J Nat Prod, 2020).

Each structure is given as a SMILES string.

For experiment [1], the system named is THP-1. The experiment is described as follows: Growth inhibition of human THP-1 cells after 96 hrs by MTT assay. The experiment is classed as functional, cell-based. The conditions noted are these: THP-1, 96 h. On the technique in general: Tetrazolium assays rely on reduction of a dye to a coloured formazan, in cell work by metabolically active cells.
Experiment [2] deals with HL-60. The experiment is described as follows: Growth inhibition of human HL-60 cells after 96 hrs by MTT assay. The experiment is classed as functional, cell-based. The conditions noted are these: HL-60, 96 h.

With `CO[C@@H]1[C@H]2[C@H](O)O[C@@]3([C@@H](OC(C)=O)C/C(C)=C/[C@H]1OC)[C@@H]2CC3(C)C`, the half-inhibitory concentration (IC50) in experiment [1] was found to be 2 µM; in experiment [2], 6.2 µM.

Usually IC50 stands for the point on the concentration scale where inhibition reaches its midpoint.
